Source: patent publication US20060089371A1, “Phenyl or heteroaryl amino alkane derivatives as ip receptor antagonist” (Bayer HealthCare AG, priority 2002, published 2006)

Assays:
IP receptor = target: T1, IP receptor (Homo sapiens, UniProt P43119); test: IP receptor binding/cAMP in HEL cells ([3H]-iloprost binding, Assay 1; iloprost-induced cAMP production, Assay 2); conditions: compounds of about 40 to 90% purity, read-out: In vitro activity grade (IC50 class)
T1 construct: one million cells in 160 μl aliquot of cell suspension were put in a well of 96 well plate; host or cells: HEL 92.1.7 human erythroleukemia cells (whole cells)
T1 sequence (P43119 whole entry): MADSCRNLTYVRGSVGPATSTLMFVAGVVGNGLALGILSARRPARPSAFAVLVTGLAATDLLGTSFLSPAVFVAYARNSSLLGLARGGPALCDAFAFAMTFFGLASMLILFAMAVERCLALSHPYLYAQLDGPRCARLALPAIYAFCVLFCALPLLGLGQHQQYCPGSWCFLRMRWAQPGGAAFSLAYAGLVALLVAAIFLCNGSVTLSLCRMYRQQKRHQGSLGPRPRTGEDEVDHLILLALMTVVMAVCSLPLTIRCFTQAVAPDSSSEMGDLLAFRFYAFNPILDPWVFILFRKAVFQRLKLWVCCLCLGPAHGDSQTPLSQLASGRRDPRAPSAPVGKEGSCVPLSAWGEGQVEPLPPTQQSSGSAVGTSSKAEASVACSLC
Method in brief: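 For binding (Assay 1), 1×10^6 HEL 92.1.7 cells in 50 mM Tris-HCl, 5 mM MgCl2, pH 7.5 were incubated with [3H]-iloprost (0.02 μCi) for 30 min at RT and filter-counted; a 100 μM iloprost solution defined non-specific binding. Compounds were of 40-90% purity.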

IC50 (IP receptor)	melting point	Compound
100 to 1000 nM	135 to 138 °C (dec.)	O=C(O)C(Cc1ccccc1)Nc1cc(-c2ccc(-c3cccc4ccccc34)cc2)ncn1 (stereo not shown) [Example 11-7]
< 100 nM	125 to 127 °C (dec.)	O=C(O)C(Cc1ccccc1)Nc1cc(-c2ccc(-c3cccc([N+](=O)[O-])c3)cc2)ncn1 (stereo not shown) [Example 11-9]
100 to 1000 nM	121 to 123 °C (dec.)	COc1ccccc1-c1ccc(-c2cc(NC(Cc3ccccc3)C(=O)O)ncn2)cc1 (stereo not shown) [Example 11-10]
100 to 1000 nM	120 to 123 °C (dec.)	O=C(O)C(Cc1ccccc1)Nc1cc(-c2ccc(-c3ccc(Oc4ccccc4)cc3)cc2)ncn1 (stereo not shown) [Example 11-11]
100 to 1000 nM	120 to 123 °C	COc1cc(-c2ccc(-c3cc(NC(Cc4ccccc4)C(=O)O)ncn3)cc2)cc(OC)c1OC (stereo not shown) [Example 11-12]
100 to 1000 nM	250 to 252 °C (dec.)	O=C(Nc1ccc(-c2cc(N[C@@H](Cc3ccccc3)C(=O)O)ncn2)cc1)c1ccccc1 [Example 14-1, N-{6-[4-(Benzoylamino)phenyl]pyrimidin-4-yl}phenylalanine]
100 to 1000 nM	153 to 155 °C (dec.)	CC(C)(C)OC(=O)Nc1ccc(-c2cc(NC(Cc3ccccc3)C(=O)O)ncn2)cc1 (stereo not shown) [Example 14-2]
100 to 1000 nM	145 to 148 °C (dec.)	O=C(Cc1ccccc1)Nc1ccc(-c2cc(NC(Cc3ccccc3)C(=O)O)ncn2)cc1 (stereo not shown) [Example 14-3]
> 1000 nM	217 to 220 °C (dec.)	O=C(O)C(Cc1ccccc1)Nc1cc(-c2ccc(NS(=O)(=O)c3ccc(F)cc3)cc2)ncn1 (stereo not shown) [Example 15-2]
< 100 nM	109 to 111 °C	O=C(c1ccccc1)c1ccc(-c2cc(N[C@@H](Cc3ccccc3)C(=O)O)ncn2)cc1 [Example 17-1, N-[6-(4-Benzoylphenyl)pyrimidin-4-yl]phenylalanine]
100 to 1000 nM	116 to 119 °C	O=C(c1ccc(-c2cc(NC(Cc3ccccc3)C(=O)O)ncn2)cc1)C1CCCCC1 (stereo not shown) [Example 17-2]
< 100 nM	114 to 116 °C	O=C(c1ccc(-c2cc(NC(Cc3ccccc3)C(=O)O)ncn2)cc1)C1CCCC1 (stereo not shown) [Example 17-3]
< 100 nM	115 to 117 °C	O=C(c1ccc(F)cc1)c1ccc(-c2cc(NC(Cc3ccccc3)C(=O)O)ncn2)cc1 (stereo not shown) [Example 17-4]
< 100 nM	123 to 126 °C	O=C(c1ccc(Cl)cc1)c1ccc(-c2cc(NC(Cc3ccccc3)C(=O)O)ncn2)cc1 (stereo not shown) [Example 17-5]
100 to 1000 nM	98 to 101 °C	O=C(O)C(Cc1ccccc1)Nc1cc(-c2ccc(Cc3ccc(F)cc3)cc2)ncn1 (stereo not shown) [Example 18-2]
100 to 1000 nM	105 to 107 °C	O=C(O)C(Cc1ccccc1)Nc1cc(-c2ccc(Cc3ccc(Cl)cc3)cc2)ncn1 (stereo not shown) [Example 18-3]
100 to 1000 nM	173 to 176 °C (dec.)	O=C(O)C(Cc1ccccc1)Nc1cc(-c2ccc(CNCc3ccccc3)cc2)ncn1 (stereo not shown) [Example 19-2]
> 1000 nM	148 to 150 °C	O=C(O)C(Cc1ccccc1)Nc1cc(-c2ccc(CN3CCc4ccccc4C3)cc2)ncn1 (stereo not shown) [Example 19-4]

IC50 (IP receptor)	melting point	Compound
< 100 nM	81 to 84 °C	O=C(O)C(Cc1ccccn1)Nc1cc(-c2ccc(COc3ccccc3)cc2)ncn1 (stereo not shown) [Example 20-2]
< 100 nM	152.8 °C	O=C(O)[C@H](Cc1ccccc1)Nc1cc(-c2ccc(/C=N/Oc3ccccc3)cc2)ncn1 [Example 21-1, N-(6-{4-[(E)-(phenoxyimino)methyl]phenyl}pyrimidin-4-yl)phenylalanine]
100 to 1000 nM	> 300 °C	O=Cc1c(N[C@@H](Cc2ccccc2)C(=O)O)ncnc1-c1ccc(OCc2ccccc2)cc1 [Example 22-1, N-{6-[4-(Benzyloxy)phenyl)-5-formylpyrimidin-4-yl}phenylalanine]
100 to 1000 nM	114 to 117 °C	O=C(O)[C@H](Cc1ccccc1)Nc1ncnc(-c2ccc(OCc3ccccc3)cc2)c1CO [Example 23-1, N-[6-[4-(Benzyloxy)phenyl]-5-(hydroxymethyl)pyrimidin-4-yl]phenylalanine]
< 100 nM	152 to 154 °C	O=C(O)[C@H](Cc1ccccc1)Nc1cccc(-c2ccc(OCc3ccccc3)cc2)c1 [Example 24-1, N-[4′-(Benzyloxy)biphenyl-3-yl]phenylalanine]
< 100 nM	159 to 162 °C	COc1cccc(COc2ccc(-c3cccc(N[C@@H](Cc4ccccc4)C(=O)O)c3)cc2)c1 [Example 24-2, N-{4′-[(3-Methoxybenzyl)oxy]biphenyl-3-yl}phenylalanine]
< 100 nM	166 to 168 °C	COc1cc(COc2ccc(-c3cccc(NC(Cc4ccccc4)C(=O)O)c3)cc2)cc(OC)c1 (stereo not shown) [Example 24-3]
< 100 nM	158 to 161 °C	O=C(O)C(Cc1ccccc1)Nc1cccc(-c2ccc(OCc3ccccc3F)cc2)c1 (stereo not shown) [Example 24-4]
< 100 nM	167 to 169 °C	O=C(O)C(Cc1ccccc1)Nc1cccc(-c2ccc(OCc3cccc(F)c3)cc2)c1 (stereo not shown) [Example 24-5]
100 to 1000 nM	175 to 178 °C	O=C(O)C(Cc1ccccc1)Nc1cccc(-c2ccc(OCc3ccc(F)cc3)cc2)c1 (stereo not shown) [Example 24-6]
< 100 nM	182 to 185 °C	O=C(O)C(Cc1ccccc1)Nc1cccc(-c2ccc(OCCn3cccc3)cc2)c1 (stereo not shown) [Example 24-7]
< 100 nM	130 to 133 °C	O=C(O)[C@H](Cc1ccccc1)Nc1cc(-c2ccc(OCc3ccccc3)nc2)ncn1 [Example 25-1, N-{6-[6-(benzyloxy)pyridin-3-yl]pyrimidin-4-yl}phenylalanine]
100 to 1000 nM	150 to 153 °C	O=C(O)C(Cc1ccccc1)Nc1cccc(-c2ccc(OCc3ccccc3)nc2)c1 (stereo not shown) [Example 25-2]
< 100 nM	113 to 114 °C	O=C(O)C(Cc1ccccc1)Nc1cc(-c2ccc(OCC3CC3)nc2)ncn1 (stereo not shown) [Example 25-3]
< 100 nM	235 to 239 °C	O=C(NO)C(Cc1ccccc1)Nc1cc(-c2ccc(OCc3ccccc3)cc2)ncn1 (stereo not shown) [Example 26-1, N-{6-[4-(Benzyloxy)phenyl]pyrimidin-4-yl}-N-hydroxyphenylalaninamide]
< 100 nM	150 °C	c1ccc(COc2ccc(-c3cc(NC(Cc4ccccc4)c4nnn[nH]4)ncn3)cc2)cc1 (stereo not shown) [Example 27-1, 6-[4-(Benzyloxy)phenyl]-N-[2-phenyl-1-(1H-tetrazol-5-yl)ethyl)pyrimidin-4-amine]
< 100 nM	137 to 139 °C	O=C(O)[C@H](Cc1ccccc1)Nc1ccnc(-c2ccc(OCc3ccccc3)cc2)c1 [Example 28-1, N-{2-[4-(Benzyloxy)phenyl]pyridin-4-yl}phenylalanine]
